Patent US20220202964A1, “HEPARANASE COMPOUNDS AND METHODS OF USE” (University of Florida Research Foundation, Incorporated, priority 2019, published 2022)
“And” between values parts separate entries of the source, which are not always exact repeats. Equal entries are not always repeated.

Target: T1, heparanase (Homo sapiens, UniProt Q9Y251)
T1 sequence (Q9Y251 36-543): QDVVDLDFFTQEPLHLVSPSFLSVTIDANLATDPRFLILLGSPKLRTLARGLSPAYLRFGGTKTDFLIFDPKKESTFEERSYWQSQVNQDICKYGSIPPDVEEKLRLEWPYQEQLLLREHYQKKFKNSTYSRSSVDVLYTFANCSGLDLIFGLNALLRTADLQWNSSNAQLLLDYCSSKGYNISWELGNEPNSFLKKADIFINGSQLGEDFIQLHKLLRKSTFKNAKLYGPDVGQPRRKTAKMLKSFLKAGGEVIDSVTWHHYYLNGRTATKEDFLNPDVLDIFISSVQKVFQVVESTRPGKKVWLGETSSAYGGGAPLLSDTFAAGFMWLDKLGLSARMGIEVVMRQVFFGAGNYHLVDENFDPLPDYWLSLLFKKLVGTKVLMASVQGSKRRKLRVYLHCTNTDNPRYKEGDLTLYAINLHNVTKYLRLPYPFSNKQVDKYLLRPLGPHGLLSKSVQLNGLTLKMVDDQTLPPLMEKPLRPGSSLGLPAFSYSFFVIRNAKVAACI
Assay: Kinetics and detection limit of heparanase by Compound 1 (HADP)
Assay type: biochemical
Protocol: To a solution of 20 μL, of 50 μM HADP (compound 1) and 160 μL 40 mM NaOAc buffer (pH 5.0) buffers was added 20 μL, heparanase with various concentrations (0-0.1 μg/μL) in 96-well microplate. Then final concentration of heparanase is from 0-0.01 μg/μL. Each concentration was performed in triplicates. Then the fluorescence intensity was recorded on Spectramax M5 Multimode plate reader (Molecular Devices, USA) at each timepoint. λex/em=365 nm/455 nm.
To calculate the detection limit, plot the fluorescence intensity against heparanase concentration and fit a line with linear regression. The detection limit was estimated with the following formula. LOD=3 σ/s, where σ represents standard deviation of fluorescent intensity of blank sample, s is the calculated slope of linear regression equation.
To determine the detection limit of Compound 1 (HADP) probe for heparanse, concentration-dependent studies with various concentrations of heparanse over time were performed with 5 μM 1 (HADP). The concentration increases of heparanse led to higher fluorescent intensities at the same time point due to the expedited cleavage of glyosidic bond, releasing more fluorophores. A good linear relationship was obtained in the heparanse concentration range of 0-0.01 μgμl-1 with an equation of F455 nm=650443[HPA]+12.03 (R^2=0.9968). Based on 3σ/s method, the limit of detection (LOD) of Compound 1 for heparanse was calculated to be 0.35 ng/mL (67 pM), indicating the ultra-sensitivity of Compound 1 (HADP) to detect heparanase activity. The kinetic parameters for the enzymatic cleavage of Compound 1 (HADP) were determined via time-dependent fluorescence intensity in the presence of heparanase and probe 1 (HADP) at different concentration.

limit of detection (LOD) for heparanase (5 μM probe, 3σ/s method): 0.35 ng/mL and 67 pM
turnover number (kcat) (enzymatic cleavage by heparanase): 0.04 s⁻¹
Km (enzymatic cleavage by heparanase, read-out: Michaelis constant (Km)): 8.3 µM
SMILES: Cc1cc(=O)oc2c(F)c(O[C@@H]3O[C@H](C(=O)O)[C@@H](O[C@H]4O[C@H](CO)[C@@H](O)[C@H](O)[C@H]4NS(=O)(=O)O)[C@H](O)[C@H]3O)c(F)cc12 [Compound 1]
